Data as given in the NIST ThermoML archive (doi:10.1021/je800468h).
Values joined by “and” are separate entries in the source; they are usually repeats but may differ in a detail not shown here. Equal values may be shown once.

Columns and labels:
[1] = 298.15 K, 101 kPa, Liquid; for electrical conductivity: Alternating current cell with electrodes; for mass density: Vibrating tube method
[2] = xn = mol fraction of the nth substance listed; conditions: 298.15 K, 101 kPa, Liquid; for electrical conductivity: Alternating current cell with electrodes; for mass density: Vibrating tube method

CCCCn1cc[n+](C)c1.F[B-](F)(F)F [1-butyl-3-methylimidazolium tetrafluoroborate]
[1]
Conditions	electrical conductivity [S/m]	mass density [kg/m3]
–	0.353	1202.19

CCCCn1cc[n+](C)c1.F[B-](F)(F)F [1-butyl-3-methylimidazolium tetrafluoroborate] + O
[2]
Conditions	electrical conductivity [S/m]	mass density [kg/m3]
x1 = 0.005053	1.72	1007
x1 = 0.008751	2.47	1013.47
x1 = 0.01927	3.59	1030.78
x1 = 0.03304	4.46	1047.81
x1 = 0.04969	4.9	1065.19
x1 = 0.07385	5.17	1084.47
x1 = 0.1053	5.21	1103.47
x1 = 0.1566	4.93	1124.77
x1 = 0.1991	4.55	1137.3
x1 = 0.2824	3.71	1154.46
x1 = 0.414	2.57	1171.08
x1 = 0.4919	2.04	1177.86
x1 = 0.5749	1.57	1183.94
x1 = 0.6838	1.1	1190.14
x1 = 0.7594	0.846	1193.53
x1 = 0.8931	0.527	1198.74
x1 = 1	0.353	1202.19

CCCCCCn1cc[n+](C)c1.F[B-](F)(F)F [1-hexyl-3-methylimidazolium tetrafluoroborate] + O
[2]
Conditions	electrical conductivity	mass density
x1 = 0.0007116	0.327 S/m	998.06 kg/m3
x1 = 0.001428	0.567 S/m	999.52 kg/m3
x1 = 0.001482	0.608 S/m	999.64 kg/m3
x1 = 0.002238	0.854 S/m	1001.24 kg/m3
x1 = 0.00296	1.05 S/m and 1.06 S/m	1002.63 kg/m3 and 1002.7 kg/m3
x1 = 0.003642	1.225 S/m	1003.94 kg/m3
x1 = 0.00447	1.411 S/m	1005.24 kg/m3
x1 = 0.004747	1.47 S/m	1005.61 kg/m3
x1 = 0.2816	2.03 S/m	1113.63 kg/m3
x1 = 0.314	1.829 S/m	1116.76 kg/m3
x1 = 0.3441	1.66 S/m	1119.43 kg/m3
x1 = 0.3813	1.46 S/m	1122.43 kg/m3
x1 = 0.4148	1.29 S/m	1124.75 kg/m3
x1 = 0.5139	0.898 S/m	1130.58 kg/m3
x1 = 0.5161	0.885 S/m	1130.73 kg/m3
x1 = 0.7069	0.417 S/m	1138.7 kg/m3
x1 = 1	0.1228 S/m	1146.34 kg/m3

CCCCCCn1cc[n+](C)c1.F[B-](F)(F)F [1-hexyl-3-methylimidazolium tetrafluoroborate]
[1]
Conditions	electrical conductivity [S/m]	mass density [kg/m3]
–	0.1228	1146.34

CCn1cc[n+](C)c1.F[B-](F)(F)F [1-ethyl-3-methylimidazolium tetrafluoroborate]
[1]
Conditions	electrical conductivity [S/m]	mass density
–	1.55	1283.7 kg/m3 and 1283.7 kg/m3 and 1280.38 kg/m3
